In US10730895B2, “Carbidopa prodrug” (AbbVie Inc., priority 2014, dated 2020):

Legend:
[1] = In vitro bioconversion study, liver S9 fraction (human); format: in vitro ADME; conditions: human liver S9 fraction 1 mg/mL
Procedure: (§1) The in vitro bioconversion of the L-dopa phosphate prodrugs to L-dopa and the carbidopa phosphate prodrugs to carbidopa was evaluated in several studies. In brief, the L-dopa and carbidopa phosphate prodrugs (2.5 ug/mL) were incubated with tissue homogenate or fractions from rats, mini-pigs, or human, including blood, skin homogenate (3 mg/mL), liver microsomes (1 mg/mL), liver S9 fraction (1 mg/mL), kidney S9 fraction (1 mg/mL), and intestine S9 fractions (1 mg/mL). The reaction mixtures were incubated at 37° C. for 5 to 6 time points within 1 to 2 hours. At the end of each time point, the reaction mixtures were quenched by 2 to 3 volumes of 5% trichloroacetic acid in water. After quenching, the mixtures were centrifuged at 3000 rpm for 20 minutes, and the supernatants were analyzed by LC-MS for quantitation of the prodrug, L-dopa or carbidopa. The in vitro bioconversion was assessed by monitoring both time-dependent depletion of the prodrug and the formation of the corresponding L-dopa or carbidopa.

[2] = 1-day stability study of individual prodrugs in aqueous solution; format: physicochemical; conditions: aqueous solution 80 μg/mL, ambient storage
Procedure: The L-dopa phosphate prodrugs and the carbidopa phosphate prodrugs were evaluated in a stability study.

[3] = In vitro bioconversion study, blood (mini-pig); format: in vitro ADME; conditions: for T1/2 / half-life at 2.5 ug/mL: prodrug 2.5 ug/mL, 37° C.; for half-life at 2.5 ug/mL: minipig
Procedure: (§2) In brief, the L-dopa and carbidopa phosphate prodrugs (2.5 ug/mL) were incubated with tissue homogenate or fractions from rats, mini-pigs, or human, including blood, skin homogenate (3 mg/mL), liver microsomes (1 mg/mL), liver S9 fraction (1 mg/mL), kidney S9 fraction (1 mg/mL), and intestine S9 fractions (1 mg/mL). The reaction mixtures were incubated at 37° C. for 5 to 6 time points within 1 to 2 hours. At the end of each time point, the reaction mixtures were quenched by 2 to 3 volumes of 5% trichloroacetic acid in water. After quenching, the mixtures were centrifuged at 3000 rpm for 20 minutes, and the supernatants were analyzed by LC-MS for quantitation of the prodrug, L-dopa or carbidopa. The in vitro bioconversion was assessed by monitoring both time-dependent depletion of the prodrug and the formation of the corresponding L-dopa or carbidopa.

[4] = In vitro bioconversion study, liver S9 fraction (mini-pig); format: in vitro ADME; conditions: mini-pig liver S9 fraction 1 mg/mL
Procedure: as §1

[5] = In vitro bioconversion study, blood (human); format: in vitro ADME; conditions: for T1/2 / half-life at 2.5 ug/mL: prodrug 2.5 ug/mL, 37° C.
Procedure: as §2

[6] = 1-day stability study, diphosphate combination solution; format: physicochemical; conditions: combined solution L-dopa 3′,4′-diphosphate 35 mg/mL + carbidopa 3′,4′-diphosphate 8.7 mg/mL, pH 6.2, room temperature, nitrogen purged
Procedure: In addition, a solution combining the diphosphates of each compound (L-dopa 3′, 4′-diphosphate at 35 mg/mL and carbidopa 3′, 4′-diphosphate at 8.7 mg/mL) was monitored over one day at room temperature. This sample was purged with nitrogen to remove oxygen.

[7] = Carbidopa diphosphate pharmacokinetics study in mini-pigs; format: in vivo; conditions: for Estimated Conversion % (Based on Carbidopa AUC): mini-pig, SC, dose 8.5 mg/kg
Procedure: The in vivo conversion of the carbidopa diphosphate to carbidopa was evaluated in a mini-pig pharmacokinetics study in which the prodrug was administered in aqueous solution subcutaneously to a group of three mini-pigs. For comparison, a pharmacokinetics study with carbidopa also was conducted to help assess the in vivo conversion of the carbidopa prodrugs. The estimated in vivo conversion of the carbidopa diphosphate to carbidopa was approximately 100%, based on the carbidopa exposures.

[8] = In vitro bioconversion study, skin homogenates (mini-pig); format: in vitro ADME; conditions: for L-Dopa or Carbidopa Formation: mini-pig skin homogenate; for T1/2 / half-life at 2.5 ug/mL: mini-pig skin homogenate 3 mg/mL, 37° C.; for half-life at 2.5 ug/mL: minipig
Procedure: as §2

[9] = In vitro bioconversion study, skin homogenates (rat); format: in vitro ADME; conditions: for L-Dopa or Carbidopa Formation: rat skin homogenate; for T1/2 / half-life at 2.5 ug/mL: rat skin homogenate 3 mg/mL, 37° C.
Procedure: as §2

[10] = In vitro bioconversion study, human liver microsomes; format: in vitro ADME; conditions: human liver microsomes 1 mg/mL
Procedure: as §1

[11] = In vitro bioconversion study, blood (rat); format: in vitro ADME; conditions: for half-life at 2.5 ug/mL: prodrug 2.5 ug/mL, 37° C.
Procedure: as §2

[12] = In vitro bioconversion study, intestinal S9 fractions (human); format: in vitro ADME; conditions: for L-Dopa or Carbidopa Formation: human intestinal S9 fraction; for half-life at 2.5 ug/mL: human intestinal S9 fraction 1 mg/mL
Procedure: as §1

[13] = In vitro bioconversion study, intestinal S9 fractions (rat); format: in vitro ADME; conditions: for L-Dopa or Carbidopa Formation: rat intestinal S9 fraction; for half-life at 2.5 ug/mL: rat intestinal S9 fraction 1 mg/mL
Procedure: as §1

[14] = In vitro bioconversion study, skin homogenates (human); format: in vitro ADME; conditions: for L-Dopa or Carbidopa Formation: human skin homogenate; for T1/2 / half-life at 2.5 ug/mL: human skin homogenate 3 mg/mL, 37° C.
Procedure: as §1

[15] = In vitro bioconversion study, liver S9 fraction (rat); format: in vitro ADME; conditions: rat liver S9 fraction 1 mg/mL
Procedure: as §1

[16] = Solubility study in water by visual assessment; format: physicochemical; conditions: for solubility: thermodynamic from solid, water, ambient
Procedure: The L-dopa phosphate prodrugs and the carbidopa phosphate prodrugs were evaluated in a solubility study. The solubility values of the phosphate prodrugs in water under ambient conditions were determined by visual assessment. Table 13-A reports the results of the study, including the measured values for L-dopa and carbidopa.

[17] = In vitro bioconversion study, kidney S9 fraction (rat); format: in vitro ADME; conditions: rat kidney S9 fraction 1 mg/mL
Procedure: as §1

[18] = In vitro bioconversion study, kidney S9 fraction (human); format: in vitro ADME; conditions: human kidney S9 fraction 1 mg/mL
Procedure: as §1

[19] = mini-pig, 15:1 combination 48/3.2 mg/kg
Procedure: In this study, the pig received a 16-hour subcutaneous infusion of a combination of the L-dopa 4′-monophosphate and the carbidopa 4′-monophosphate together in an aqueous solution at a dose ratio of 15:1 without an initial bolus dose. The doses were 48/3.2 mg/kg for L-dopa 4′-monophosphate and the carbidopa 4′-monophosphate, respectively.

[20] = format: in vivo, rats; conditions: rat, 4:1 combination, SC bolus 60/14 mg/kg then SC infusion 300/71 mg/kg
Procedure: After 1.5 hours, the combination was dosed again via continuous infusion at a dose of 300/71 mg/kg over next 14.5 hours. Blood samples were collected at 0, 0.25, 1, 6, 16, and 24 hours post dose. […] FIG. 7 provides a time-concentration profile for L-dopa and L-dopa 4′-monophosphate blood levels after administration of the combination of 4′-monophosphate prodrugs at a 4:1 ratio. […] Steady state concentration of ˜1 μg/mL was maintained over the infusion period for carbidopa. […] FIG. 9 provides a time-concentration profile for carbidopa and carbidopa 4′-monophosphate blood levels after administration of the combination of 4′-monophosphate prodrugs at a 4:1 ratio.

[21] = 7-day stability study, 4′-monophosphate combination solution; format: physicochemical; conditions: combined solution L-dopa 4′-monophosphate 200 mg/mL + carbidopa 4′-monophosphate 50 mg/mL, pH 7.4, room temperature
Procedure: In addition, a solution combining the L-dopa 4′-monophosphate at 200 mg/mL and carbidopa 4′-monophosphate at 50 mg/mL was monitored over 7 days at room temperature. These samples were prepared with and without purging with nitrogen to remove oxygen.

[22] = Pharmacokinetic study in rats, individual prodrug IV or SC; format: in vivo, Sprague-Dawley rats; conditions: rat; for AUC: male, Sprague-Dawley, plasma, dose 1.25 mg/kg, L-dopa and carbidopa in aqueous solution, read-out: Carbidopa AUCO-8 h; for Estimated Conversion % (Based on L-dopa AUC): dose 8.5 mg/kg
Procedure: For comparison, a rat pharmacokinetics study with L-dopa and carbidopa was conducted to help assess the in vivo conversion of the prodrugs. The study design and measured exposures of L-dopa and carbidopa are summarized in Tables 16-A and 16-B, respectively. In brief, groups of three male Sprague-Dawley rats were given (1) L-dopa and carbidopa in aqueous solution, or (2) the individual prodrug in aqueuous solution intravenously or subcutaneously. Blood samples were collected at multiple time points over 24 hours into a collection tube containing NaAsO4, EDTA, and ascorbic acid. […] The supernatants were subjected to LC-MS analysis for quantitation of prodrug, L-dopa or carbidopa.

[23] = Local tolerability, single SC bolus in rats; format: in vivo; conditions: concentrations up to 125 mg/mL
[24] = listed as 3′,4′-diphosphate prodrug of carbidopa
[25] = listed as diphosphate prodrug of carbidopa

Structure (SMILES)	stability and L-dopa or carbidopa formation [1]	% Remaining After One Day ([2]; pH 6.8)	L-Dopa or Carbidopa Formation [3]	stability and L-dopa or carbidopa formation [4]	L-Dopa or Carbidopa Formation [5]	L-Dopa or Carbidopa Formation [8]	L-Dopa or Carbidopa Formation [9]	stability and L-dopa or carbidopa formation [10]	L-Dopa or Carbidopa Formation [11]	half-life at 2.5 ug/mL [11]	L-Dopa or Carbidopa Formation [12]	half-life at 2.5 ug/mL [12]	L-Dopa or Carbidopa Formation [13]	half-life at 2.5 ug/mL [13]	L-Dopa or Carbidopa Formation [14]	stability and L-dopa or carbidopa formation [15]	stability and L-dopa or carbidopa formation [17]	stability and L-dopa or carbidopa formation [18]	half-life at 2.5 ug/mL [3]	half-life at 2.5 ug/mL [5]	other results
C[C@@](Cc1ccc(OP(=O)(O)O)c(OP(=O)(O)O)c1)(NN)C(=O)O [Carbidopa 3′,4′-diphosphate]	stable without formation of L-dopa or carbidopa observed	>97%	No	stable without formation of L-dopa or carbidopa observed	No	No	No	stable without formation of L-dopa or carbidopa observed	Yes	0.883 h	Yes	0.525 h	Yes	1.32 h	No	stable without formation of L-dopa or carbidopa observed	stable without formation of L-dopa or carbidopa observed	stable without formation of L-dopa or carbidopa observed	–	–	T1/2 [3, 24]: stable; T1/2 [3, 25]: not dephosphorylated; T1/2 [5, 24]: stable; T1/2 [5, 25]: not dephosphorylated; % Remaining After One Day [6]: >99%; Estimated Conversion % (Based on Carbidopa AUC) [7, 24]: 100%; Estimated Conversion % (Based on Carbidopa AUC) ([7]; listed as carbidopa diphosphate): approximately 100%; T1/2 [8]: stable; T1/2 [9]: stable; T1/2 [14]: stable; solubility ([16]; pH 5.5, amorphous): > 247 mg/mL
C[C@@](Cc1ccc(O)c(OP(=O)(O)O)c1)(NN)C(=O)O [Carbidopa 3′-phosphate, Carbidopa 3′-monophosphate]	–	–	Yes	–	Yes	Yes	Yes	–	Yes	0.342 h	–	–	–	–	Yes	–	–	–	0.148 h	0.967 h	% Remaining After One Day ([2]; pH 6.5): >94%; half-life at 2.5 ug/mL [8]: 6.88 h; half-life at 2.5 ug/mL [9]: 12.1 h; half-life at 2.5 ug/mL [14]: 10 h; solubility ([16]; pH 7.1, amorphous): > 96 mg/mL
C[C@@](Cc1ccc(OP(=O)(O)O)c(O)c1)(NN)C(=O)O [Carbidopa 4′-phosphate, Carbidopa 4′-monophosphate]	stable without formation of L-dopa or carbidopa observed	>98%	Yes	stable without formation of L-dopa or carbidopa observed	Yes	Yes	Yes	stable without formation of L-dopa or carbidopa observed	Yes	0.248 h	Yes	0.402 h	Yes	1.23 h	Yes	stable without formation of L-dopa or carbidopa observed	stable without formation of L-dopa or carbidopa observed	stable without formation of L-dopa or carbidopa observed	0.147 h	1.08 h	Exposure of the remaining carbidopa 4′-monophosphate, % of the carbidopa exposure [19]: ~22%; half-life at 2.5 ug/mL [8]: 1.9 h; half-life at 2.5 ug/mL [9]: 4.52 h; Exposure of the remaining carbidopa 4′-monophosphate, % of carbidopa [20]: ~8%; half-life at 2.5 ug/mL [14]: 2.3 h; % Remaining After 7 Days ([21]; Nitrogen Purged): >99%; % Remaining After 7 Days ([21]; Non-Purged): >97%; solubility compared to L-dopa and carbidopa ([16]; FIG. 1, pH of 7.4): increased solubility; solubility ([16]; pH 7.4, L-dopa 4′-phosphate crystalline, carbidopa 4′-phosphate amorphous): > 200 mg/mL
C[C@@](Cc1ccc(O)c(O)c1)(NN)C(=O)O [Carbidopa, (2S)-3-(3,4-dihydroxyphenyl)-2-hydrazino-2-methylpropanoic acid]	–	–	–	–	–	–	–	–	–	–	–	–	–	–	–	–	–	–	–	–	AUC ([22]; IV): 860 ng·h/mL; AUC ([22]; SC): 685 ng·h/mL; AUC ([7]; minipig, in vivo, sc, 2 mg/kg): 1610 ng·h/mL; solubility ([16]; pH 4-7, crystalline (carbidopa: crystalline monohydrate)): < 4 mg/mL
N[C@@H](Cc1ccc(OP(=O)(O)O)c(OP(=O)(O)O)c1)C(=O)O [L-dopa 3′,4′-diphosphate]	stable without formation of L-dopa or carbidopa observed	–	Yes	stable without formation of L-dopa or carbidopa observed	Yes	No	No	stable without formation of L-dopa or carbidopa observed	Yes	0.1 h	Yes	1.53 h	Yes	0.903 h	No	stable without formation of L-dopa or carbidopa observed	stable without formation of L-dopa or carbidopa observed	stable without formation of L-dopa or carbidopa observed	2.08 h	2.3 h	local intolerance (clinical signs, microscopic findings) [23]: no adverse clinical signs or microscopic findings indicative of local intolerance; % Remaining After One Day ([2]; pH 7.0): >99%; Estimated Conversion % (Based on L-dopa AUC) ([22]; IV): >100%; Estimated Conversion % (Based on L-dopa AUC) ([22]; SC): >100%; % Remaining After One Day [6]: >99%; T1/2 [8]: stable; T1/2 [9]: stable; T1/2 [14]: stable; solubility ([16]; pH 5.5, amorphous): > 330 mg/mL
